Experimental data taken from patent publication US7893252B2, “Selectively depolymerized galactomannan polysaccharide” (priority 2003, dated 2011).
“Also recorded” adds a separate entry of the source.

Tests used:
[1] = test system: human colon tumor COLO 205; assay: Efficacy study in COLO 205 human colon tumor xenografts, q4d×3 (Example 3); details: i.v. q4d×3, 5-FU 75 mg/kg/dose, GM 120 mg/kg/dose
Procedure: The both studies were conducted as follows.
5-FU alone was administered i.v. on the same q4d×3 treatment schedule at doses of 75 mg/kg/dose (225 mg/m2/dose). 5-FU was formulated in saline fresh on each day of treatment at a concentration of 3.75 mg/mL, at pH 9.2. […] Both individual compounds and their mixture were administered according to exact body weight with injection volume being 0.2 mL/10 g body weight.
There were a total of four groups of 10 animals each, s.c.-implanted with COLO 205 human colon tumor xenografts.

[2] = test system: COLO 205 human colon tumor xenografts; assay: Efficacy and compatibility with leucovorin in COLO 205 human colon tumor xenografts, q4d×4 (Example 4)
Procedure: The principal differences with the study described in Example 3 were that (a) the galactomannan was from another source, of a different size (molecular weight) and with a different Man/Gal ratio, (b) there were four consecutive injections, not three, (c) there were four doses of the galactomannan tested, not one, (d) 5-FU was administered (i.v.) in 48 mg/kg/dose, not 75 mg/kg/dose, as in the first study, and (e) galactomannan (i.v. injection) was compared with leucovorin (oral gavage, administered two hours after 5-FU) in terms of efficacy and toxicity. […] 5-FU alone was administered i.v. on the same q4d×4 treatment schedule at dosages of 48 mg/kg/dose. 5-FU was formulated in saline fresh on each day of treatment at a concentration of 4.8 mg/mL, at pH 9.2. […] Leucovorin powder (clinical formulation, Leucovorin calcium for injection) was reconstituted with water for injection to yield a concentration of 10 mg/mL. On each day of treatment the stock solution was diluted with water for injection to yield a concentration of 2.5 mg/mL.
Two more combination-treatment groups were also included in the study. One group of mice was treated with 5-FU (48 mg/kg/dose, i.v., q4d×4), followed by oral gavage (p.o.) with leucovorin, administered two hours after 5-FU at a dosage of 25 mg/kg/dose. Another two groups of mice were treated with 5-FU in a combination with the galactomannan (48 mg/kg/dose and 120 mg/kg/dose, respectively, i.v., q4d×4), followed by p.o. leucovorin treatment, administered at a dosage of 25 mg/kg/dose two hours after 5-FU plus the galactomannan.
There were a total of nine groups of 10 animals each, s.c.-implanted with COLO 205 human colon tumor xenografts.

[3] = test system: Salmonella typhimurium strains TA97a, TA98, TA100, TA1535 and Escherichia coli strain WP2 uvrA (pKM101); assay: Ames bacterial reverse mutation assays; format: cell-based; details: in the presence and absence of an exogenous metabolic activation system
Procedure: Mutagenicity studies were conducted and included two Ames bacterial reverse mutation assays in which the galactomannan of the invention was evaluated by itself in the first study and combined with 5-FU in the second study. The test articles in both studies were evaluated in bacterial assays using Salmonella typhimurium strains TA97a, TA98, TA100, TA1535 and Escherichia coli strain WP2 uvrA (pKM101), both in the presence and absence of an exogenous metabolic activation system.

[4] = i.v. q4d×4, 5-FU 48 mg/kg/dose, GM 120 mg/kg/dose

“(((1,4)-linked β-D-mannopyranose)17-((1,6)-linked-β-D-galactopyranose)10)12) [GM]” was tested, and the mean survival time [1] was 19.2 days, the “median to quadrupling of tumor volume” value [1] was 15.5 days and the “median tumor volume after 56 days of the study” value [1] was 1813 mm3. For the same substance, the tolerability [1] was “well tolerated”, the “tumor regression after 56 days of the study” value [1] was “no tumor regression” and the treatment-related deaths ([1]; 10 mice per group, within two weeks) was “No deaths”. The “tumor growth delay / tumor regression after 13 days” value ([2]; GM 120 mg/kg/dose alone, q4d×4) was “did not delay growth; also recorded: No tumor regression”, the “median to quadrupling of tumor volume” value [2, 4] was 6.9 days and the “median tumor volume after 13 days” value [2, 4] was 1152 mm3. The mutagenic activity ([3]; listed as galactomannan) was “not mutagenic” and the mutagenic activity ([3]; listed as galactomannan of the invention) was “No evidence of mutagenic activity”.
